Results: patent US20070207975A1, “Materials and methods for treating and preventing Her-2/neu overexpressing, FAS-elevated cancer cells” (EVANSTON NORTHWESTERN HEALTHCARE, priority 2006, published 2007)

Tests used:
[1] = tested on: SK-Br3 and BT-474 cells; experiment: Soft-agar colony-formation assay; format: cell-based, human
[2] = tested on: p185^Her-2/neu; conditions: cultured breast cancer cells; exogenous GLA supplementation; reference (16); cited from earlier work
[3] = tested on: PEA3; experiment: Immunoblot analysis of PEA3 protein; format: cell-based, human
Method: […] Louis, Mo.). […] […] A) Cell surface expression of Her-2/neu protein in BT-474 and SK-Br3 cells was determined by flow cytometry using a mouse anti-Her-2/neu antibody directed against the extracellular domain of the p185^Her-2/neu oncoprotein (clone Ab-5; Oncogene Research Products; San Diego, Calif.). Briefly, after GLA or control treatment, cells were washed, harvested, resuspended in phosphate-buffered saline (PBS) containing 1% FBS, and incubated with 5 μg/mL Ab-5 antibody for 1 hour at 4° C. The cells were washed again and then incubated with a fluorescein isothiocyanate (FITC)-conjugated anti-mouse IgG secondary antibody (Jackson ImnunoResearch Laboratories, West Grove, Pa.) diluted 1:200 in cold PBS containing 1% FBS for 45 minutes at 4° C. The cells were washed once more in cold PBS, and flow cytometric analysis was performed with a FACScalibur flow cytometer (Becton Dickinson, San Diego, Calif.) equipped with Cell Quest Software (Becton Dickinson). […] As a control for nonspecific immunofluorescence, cells were stained with the secondary antibody alone (solid black line). The mean fluorescence signal associated with cells for labeled p185^Her-2/neu was quantified using the Geo Mean (GM) fluorescence parameter provided with the software. […] B) Immunoblot analysis of Her-2/neu and PEA3 proteins in control- and GLA-treated BT-474 and SK-Br3 cells. Cells were washed twice with PBS and then lysed in buffer (20 m M Tris [pH 7.5], 150 m M NaCl, 1 mM EDTA, 1 m M EGTA, 1% Triton X-100, 2.5 m M sodium pyrophosphate, 1 mM β-glycerolphosphate, 1 mM Na3VO4, 1 μg/ml leupeptin, 1 mM phenylmethylsulfonyl fluoride) for 30 minutes on ice. Equal amounts of protein (10 μg) were heated in sodium dodecyl sulfate (SDS) sample buffer for 10 minutes at 70° C., subjected to electrophoresis on either 3-8% NuPAGE Tris-acetate (p185^Her-2/neu) or 10% SDS-polyacrylamide gel electrophoresis (PEA3) gels, and transferred to nitrocellulose membranes. Nonspecific binding was blocked by incubation for 1 hour with TBS-T (25 mM Tris-HCl [pH 7.5], 150 mM NaCl, and 0.05% Tween-20) containing 5% nonfat dry milk. The treated filters were washed in TBS-T and then incubated with primary antibodies, anti-p185^Her-2/neu mouse monoclonal antibody—Clone Ab-3 [Oncogene Research Products, San Diego, Calif.] and anti-PEA3 mouse monoclonal antibody—sc-113 [Santa Cruz Biotechnology, Santa Cruz, Calif.], for 2 hours in TBS-T containing 5% (w/v) nonfat dry milk. The membranes were washed in TBS-T and horseradish peroxidase—conjugated secondary antibodies in TBS-T were added for 45 minutes. Immunoreactive bands were detected by enhanced chemiluminescence reagent (Pierce, Rockford, Ill.). Blots were reprobed with an anti-β-actin goat polyclonal antibody (Santa Cruz Biotechnology) to control for protein loading and transfer. Densitometric values of protein bands were quantified using Scion Imaging Software (Scion Corp., Frederick, Md.).

[4] = tested on: Breast Cancer Cells; experiment: Effect of fatty acids, breast cancer cells (Table 2); format: cell-based; conditions: FAS named only for oleic acid
[5] = tested on: BT-474 cells; experiment: MTT cell viability / isobologram analysis, BT-474; format: cell-based, human
Method: FIG. 10. […] Cells in exponential growth were harvested, seeded at a concentration of ˜5×10^3 cells/200 μl/well into 96-well plates and allowed to attach overnight. […] Agents were studied in combination concurrently, and they were not renewed during the entire period of cell exposure. After treatment, the medium was removed and replaced by fresh drug-free medium (100 μl/well), and MTT (5 mg/ml in phosphate-buffered saline [PBS]) was added to each well at a 1/10 volume. After 2-3 hours at 37° C., the supernatants were removed, 100 μl of dimethylsulfoxide was added to each well, and the plates were agitated. Absorbances were measured at 570 nm using a multiwell plate reader (Model Anthos Labtec 2010 1.7 reader). The cell viability effects from exposure of cells to each agent alone and to their combination were analyzed by generating concentration-effect curves as a plot of the fraction of unaffected (surviving) cells versus drug concentration. Dose-response curves were plotted as percentages of the control cell absorbances, which were obtained from control wells treated with appropriate concentrations of vehicles that were processed simultaneously. For each treatment, cell viability was evaluated as a percentage using the following equation: (A570 of treated sample/A570 of untreated sample)×100. […] All statistical tests were two-sided. […]

[6] = tested on: SK-Br3 and BT-474 cells; experiment: Anchorage-dependent cell proliferation (Coulter Counter); format: cell-based, human; conditions: low concentrations of OA, increasing concentrations of trastuzumab, or combination, 6 days
Method: (A) Left panel: exponentially growing SK-Br3 and BT-474 cells were trypsinized and plated in 24-well plates at a density of 10,000 cells/well. Cells were incubated for 24 hours to allow for attachment and starved for serum overnight, after which a zero time point was determined. […] Cells were counted at days 0, 3 and 6 with a Coulter Counter. All assays were performed three times in triplicate. The data are presented as mean number of cells×10^4/well (columns)±SD (bars) after 6 days treatment. […] For each pair of columns, the height of the columns on the left represents the sum of the effect of each agent alone and, therefore, the expected percentage of cell growth inhibition if their effect was additive when used in combination. […] Colony formation (≧50 μm) was assessed using a colony counter. Each experimental value represents the mean colony number (columns)±SD (bars) from three separate experiments in which triplicate dishes were counted. […]
SK-Br3 and BT-474 cells exponentially growing in IMEM-5% FBS were trypsinized and re-plated in 24-well plates at a density of 10,000 cells/well. Cells were incubated for 24 hours to allow for attachment, after which a zero time point was determined. […] Cell number was determined at days 0, 3 and 6 with a Coulter Counter (Coulter Electronics, Inc., Hialeah, Fla.). […]

[7] = tested on: phospho-MAPK and phospho-Ser^473 AKT; experiment: Western blot of phospho-MAPK and phospho-AKT; format: cell-based, human; conditions: BT-474; 48 hours; OA 5 μM, trastuzumab 10 μg/ml in combination
Text: Densitometric values of protein bands were quantified using Scion Imaging Software (Scion Corp., Frederick, Md.).

## CCCCCC=CCC=CCC=CCCCCC(=O)O [GLA, 6,9,12-octadecatrienoic acid]
[1]; BT-474 and SK-Br3, GLA with suboptimal doses of trastuzumab
  anchorage-independent growth in soft agar, effect of GLA cotreatment: enhanced the growth-inhibitory effects
[2]
  proteolytic cleavage of the extracellular domain of p185^Her-2/neu: significantly diminished
[3]; BT-474 and SK-Br3, GLA 10 μg/mL for 48 hours
  levels of PEA3 protein: increase
[3]; MDA-MB-231, GLA exposure
  levels of PEA3 protein: not changed substantially
[3]; MDA-MB-453, SK-OV3 and NCI-N87, GLA 10 μg/mL for 48 hours
  PEA3 protein expression: increased
[4]
  Effect of Fatty Acids: Breast Cancer Cells: Potent Down-regulator
[5]; concurrent 10 μg/ml GLA
  increase in sensitivity to trastuzumab: approximately 30 fold

## CCCCCCCCC=CCCCCCCCC(=O)O [OA, 9-octadecenoic acid]
[1]; SK-Br3 and BT-474, OA, trastuzumab or co-exposure
  anchorage-independent colony formation in soft agar: slightly decreased
[6]
  anchorage-dependent cell growth: no notable effects
[3]; MCF-7/neo cells, OA supplementation
  PEA3 protein levels: not significantly affected
[3]; SK-Br3, SK-OV3 and NCI-N87, OA 20 μM, 48 hours
  PEA3 protein expression: significant up-regulation
[4]
  Effect of Fatty Acids: Breast Cancer Cells: Down-regulates
[5]; 10 mM OA, sensitization to trastuzumab
  sensitization factor (IC50 without OA / IC50 with OA): 40 fold
[7]
  active MAPK and active AKT (phospho-MAPK, phospho-Ser^473 AKT): inhibited active MAPK and active AKT
